Test results published in patent US9040573B2, “Anti-fungal agent” (Nihon Nohyaku Co., Ltd., priority 2011, dated 2015).
Converted amounts (≈) assume the structure as drawn. Like-named read-outs stand apart in the source and are kept apart here.

What was measured:
Scytalidium dimidiatum = assay: Antifungal Activity Test 1: MIC by broth microdilution method (Alamar Blue); type: cell-based; conditions: for MIC: growth inhibited by 80% or more; for MIC90: concentration to be MIC in 9 strains out of the 10 strains (90%)
Description: Scytalidium dimidiatum strain of clinical isolate obtained by separation and identification from nail or stratum corneum of patients with superficial mycosis was used. The fungi pre-cultured on an SDA medium was suspended in 0.1% (w/v) Tween 80-containing sterile saline and the suspension was filtered through gauze to collect arthrospore. This was suspended in 0.1% (w/v) Tween 80-containing sterile saline, and added to a 20% Alamar Blue-containing medium to 2×10^4 cells/mL to give a fungal inoculum solution.
(§1) Each drug was used after dissolving in DMSO (dimethyl sulfoxide).
(§2) The minimum inhibitory concentration (MIC) was measured by a broth microdilution method. That is, RPMI1640 medium (Sigma-Aldrich) was buffered with 0.165 M morpholine propanesulfonic acid (MOPS, Wako Pure Chemical Industries, Ltd.) to pH 7.0, and a given amount of a solution of the drug in DMSO was added thereto to prepare 2-fold dilution series within the range of 0.00098-4 μg/mL. This was added to a 96-well microplate by 100 μL, a fungal inoculum solution (100 μL, final concentration of fungi to be added: 1.0×10^4 cells/mL) was added, and the mixture was cultured at 35° C. An Alamar Blue reagent was added in advance to the culture medium (final addition concentration: 10%) and, at the time point when the Alamar Blue reagent in the drug-free growth control group changed from blue to red, the culture was discontinued and the absorbance (differential optical density at 570 nm based on 590 nm served as reference) measured. The minimum concentration of the drug that inhibited the growth of the fungus in the growth control group by 80% or more was taken as MIC. The concentration to be MIC (MIC90) in 9 strains out of the 10 strains (90%) measured was determined.
Reference documents for measurement method: Takako Shinoda et al.: opinion proposed by Committee for Clinical Laboratory Standards of The Japanese Society for Medical Mycology (1995-1997), Method for antifungal susceptibility testing of filamentous fungus, Medical Mycology Journal, 40: 239-257, 1999. Clinical Laboratory Standards Institute/National Committee for Clinical Laboratory Standards. Reference method for broth dilution antifungal susceptibility testing of filamentous fungus. Approved Standard M38-A2. Wayne, Pa.: National Committee for Clinical Laboratory Standards, 2008. Test Results

Scytalidium hyalinum = assay: Antifungal Activity Test 2: MIC by broth microdilution method (Alamar Blue); type: cell-based
Experimental: as §2
Scytalidium hyalinum strain of clinical isolate available from CBS (Netherlands) was used. The fungus was pre-cultured in an SDA medium, 0.1% (w/v) Tween 80-containing sterile saline was added to give a suspension, which was filtered through gauze to collect arthrospore. This was suspended in 0.1% (w/v) Tween 80-containing sterile saline, and added to a 20% Alamar Blue-containing medium to 2×10^4 cells/mL to give a fungal inoculum solution.
as §1
The test method was the same as in the aforementioned antifungal activity test 1, and the minimum concentration of the drug that inhibited the growth of the fungus in the growth control group by 80% or more was taken as MIC. The MIC range of the 4 strains measured and the geometric mean (GM) of each drug were determined.

[1] = Neoscytalidium dimidiatum, clinical isolate 530129, read-out: MIC
[2] = Neoscytalidium dimidiatum, clinical isolate 530142, read-out: MIC
[3] = Neoscytalidium dimidiatum, clinical isolate 530251, read-out: MIC
[4] = Neoscytalidium dimidiatum, clinical isolate 530621, read-out: MIC
[5] = Neoscytalidium dimidiatum, clinical isolate 530633, read-out: MIC
[6] = Neoscytalidium dimidiatum, clinical isolate 530914, read-out: MIC
[7] = Neoscytalidium dimidiatum, clinical isolate 530946, read-out: MIC
[8] = Neoscytalidium dimidiatum, clinical isolate 530999, read-out: MIC
[9] = Neoscytalidium dimidiatum, clinical isolate 531581, read-out: MIC
[10] = Neoscytalidium dimidiatum, clinical isolate 531869, read-out: MIC
[11] = Neoscytalidium dimidiatum, read-out: MIC90
[12] = Neoscytalidium hyalinum, clinical isolate CBS200.88, growth inhibited by 80% or more, read-out: MIC
[13] = Neoscytalidium hyalinum, clinical isolate CBS545.95, growth inhibited by 80% or more, read-out: MIC
[14] = Neoscytalidium hyalinum, clinical isolate CBS601.85, growth inhibited by 80% or more, read-out: MIC
[15] = Neoscytalidium hyalinum, clinical isolate CBS619.84, growth inhibited by 80% or more, read-out: MIC
[16] = Neoscytalidium hyalinum, geometric mean of the 4 strains measured, read-out: GM (geometric mean of MIC)
[17] = Neoscytalidium hyalinum, range of the 4 strains measured, read-out: MIC range

MIC (Scytalidium dimidiatum; [1]) [µg/mL]	MIC (Scytalidium dimidiatum; [2]) [µg/mL]	MIC (Scytalidium dimidiatum; [3]) [µg/mL]	MIC (Scytalidium dimidiatum; [4]) [µg/mL]	MIC (Scytalidium dimidiatum; [5]) [µg/mL]	MIC (Scytalidium dimidiatum; [6]) [µg/mL]	MIC (Scytalidium dimidiatum; [7]) [µg/mL]	MIC (Scytalidium dimidiatum; [8]) [µg/mL]	MIC (Scytalidium dimidiatum; [9]) [µg/mL]	MIC (Scytalidium dimidiatum; [10]) [µg/mL]	MIC90 (Scytalidium dimidiatum; [11]) [µg/mL]	MIC (Scytalidium hyalinum; [12]) [µg/mL]	MIC (Scytalidium hyalinum; [13]) [µg/mL]	MIC (Scytalidium hyalinum; [14]) [µg/mL]	MIC (Scytalidium hyalinum; [15]) [µg/mL]	MIC (Scytalidium hyalinum; [16]) [µg/mL]	MIC (Scytalidium hyalinum; [17]) [µg/mL]	Compound	also measured
0.5 (≈ 1.57 µM)	1 (≈ 3.15 µM)	2 (≈ 6.3 µM)	1 (≈ 3.15 µM)	0.5 (≈ 1.57 µM)	2 (≈ 6.3 µM)	1 (≈ 3.15 µM)	1 (≈ 3.15 µM)	0.5 (≈ 1.57 µM)	0.5 (≈ 1.57 µM)	2 (≈ 6.3 µM)	2 (≈ 6.3 µM)	2 (≈ 6.3 µM)	2 (≈ 6.3 µM)	2 (≈ 6.3 µM)	2 (≈ 6.3 µM)	2 (≈ 6.3 µM)	CCC(C)(C)c1ccc(CC(C)CN2C[C@@H](C)O[C@@H](C)C2)cc1 (stereo partly drawn) [AMO, amorolfine]	
																	C[C@@H]1[C@H](O)[C@@H](C)/C=C/C=C/C=C/C=C/C=C/C=C/C=C/[C@H](O[C@@H]2O[C@H](C)[C@@H](O)[C@H](N)[C@@H]2O)C[C@@H]2O[C@](O)(C[C@@H](O)C[C@@H](O)[C@H](O)CC[C@@H](O)C[C@@H](O)CC(=O)O[C@H]1C)C[C@H](O)[C@H]2C(=O)O [AMPB, amphotericin B]	MIC (Scytalidium dimidiatum; clinical isolate 530129): 0.25 µg/mL (≈ 0.271 µM); MIC (Scytalidium dimidiatum; clinical isolate 530142): 0.13 µg/mL (≈ 0.141 µM); MIC (Scytalidium dimidiatum; clinical isolate 530251): 0.25 µg/mL (≈ 0.271 µM); MIC (Scytalidium dimidiatum; clinical isolate 530621): 0.25 µg/mL (≈ 0.271 µM); MIC (Scytalidium dimidiatum; clinical isolate 530633): 0.25 µg/mL (≈ 0.271 µM); MIC (Scytalidium dimidiatum; clinical isolate 530914): 0.13 µg/mL (≈ 0.141 µM); MIC (Scytalidium dimidiatum; clinical isolate 530946): 0.25 µg/mL (≈ 0.271 µM); MIC (Scytalidium dimidiatum; clinical isolate 530999): 0.5 µg/mL (≈ 0.541 µM); MIC (Scytalidium dimidiatum; clinical isolate 531581): 0.25 µg/mL (≈ 0.271 µM); MIC (Scytalidium dimidiatum; clinical isolate 531869): 0.25 µg/mL (≈ 0.271 µM); MIC90 (Scytalidium dimidiatum): 0.25 µg/mL (≈ 0.271 µM); MIC (Scytalidium hyalinum; clinical isolate CBS200.88, growth inhibited by 80% or more): 0.5 µg/mL (≈ 0.541 µM); MIC (Scytalidium hyalinum; clinical isolate CBS545.95, growth inhibited by 80% or more): 1 µg/mL (≈ 1.08 µM); MIC (Scytalidium hyalinum; clinical isolate CBS601.85, growth inhibited by 80% or more): 0.5 µg/mL (≈ 0.541 µM); MIC (Scytalidium hyalinum; clinical isolate CBS619.84, growth inhibited by 80% or more): 0.5 µg/mL (≈ 0.541 µM); GM (geometric mean of MIC) (Scytalidium hyalinum; geometric mean of the 4 strains measured): 0.59 µg/mL; MIC range (Scytalidium hyalinum; range of the 4 strains measured): 0.5 to 1 µg/mL
0.25 (≈ 0.805 µM)	0.13 (≈ 0.419 µM)	0.25 (≈ 0.805 µM)	0.25 (≈ 0.805 µM)	0.13 (≈ 0.419 µM)	0.13 (≈ 0.419 µM)	0.25 (≈ 0.805 µM)	0.13 (≈ 0.419 µM)	0.25 (≈ 0.805 µM)	0.13 (≈ 0.419 µM)	0.25 (≈ 0.805 µM)	0.063 (≈ 0.203 µM)	0.063 (≈ 0.203 µM)	0.031 (≈ 0.0999 µM)	0.13 (≈ 0.419 µM)	0.063 (≈ 0.203 µM)	0.031 to 0.13 (≈ 0.0999 to 0.419 µM)	c1ccc(-c2ccc(C(c3ccccc3)n3ccnc3)cc2)cc1 (stereo not drawn) [BFZ, bifonazole]	
0.5 (≈ 1.45 µM)	0.5 (≈ 1.45 µM)	0.25 (≈ 0.725 µM)	0.5 (≈ 1.45 µM)	0.5 (≈ 1.45 µM)	0.5 (≈ 1.45 µM)	0.5 (≈ 1.45 µM)	0.25 (≈ 0.725 µM)	0.25 (≈ 0.725 µM)	0.25 (≈ 0.725 µM)	0.5 (≈ 1.45 µM)	0.13 (≈ 0.377 µM)	0.13 (≈ 0.377 µM)	0.13 (≈ 0.377 µM)	0.25 (≈ 0.725 µM)	0.15 (≈ 0.435 µM)	0.13 to 0.25 (≈ 0.377 to 0.725 µM)	Clc1ccccc1C(c1ccccc1)(c1ccccc1)n1ccnc1 [CTZ, clotrimazole]	
> 4	> 4	> 4	> 4	> 4	> 4	> 4	> 4	> 4	> 4	> 4	> 4	> 4	2 (≈ 6.53 µM)	> 4	> 4		OC(Cn1cncn1)(Cn1cncn1)c1ccc(F)cc1F [FCZ, fluconazole]	
